# Experiments:
# cytoplasmic ATP = conditions: 30 minutes after treatment with FCCP; cited from earlier work
# [1] = system: HeLa cell (pGL3 transfected); conditions: pGL3 transfected to HeLa cell, measured with time
# Method: Specifically, in the experiments conducted by the present inventor, pGL3 was transfected to HeLa cell and, by making use of FCCP acting as an uncoupler, the production of ATP in mitochondria was suspended and then the luminescence intensity on this occasion was measured with time by making use of LUMINOVIEW (LV100) (trade name).
structure (smiles),measurement,setting,value
"N#CC(C#N)=NNc1ccc(OC(F)(F)F)cc1 [FCCP, carbonyl cyanide p-(trifluoromethoxy) phenylhydrazone]",concentration of cytoplasmic ATP relative to steady state,cytoplasmic ATP,about 50 % of that of steady state
same,luminescence intensity after FCCP,[1],not attenuated
